From ChEMBL document CHEMBL3596161, “Progress Toward the Development of Noscapine and Derivatives as Anticancer Agents” (J Med Chem, 2015) come the findings set out here.

Experiment [1] relates to CCRF-CEM. In words: Cytotoxicity against human CEM cells. The class given is functional, cell-based.
The subject of experiment [2] is HeLa. In words: Cytotoxicity against human HeLa cells. The class given is functional, cell-based.
In experiment [3] the test system is MCF7. In words: Cytotoxicity against human MCF7 cells. The class given is functional, cell-based.
Experiment [4] relates to A549. In words: Cytotoxicity against human A549 cells. The class given is functional, cell-based.
Experiment [5] deals with Tubulin. In words: Binding affinity to tubulin (unknown origin) by fluorescence assay. It is filed as protein-complex assay, Homo sapiens.
Experiment [6] has as its target Tubulin (Homo sapiens) (UniProt P68371+Q9H4B7+P0DPH7+P68366+Q13509+Q71U36+P04350+Q3ZCM7+P07437+P68363+Q9BQE3+Q6PEY2+Q13885+Q9BVA1+Q9BUF5). In words: Inhibition of MAPs-rich tubulin (unknown origin) polymerization at 50 uM. The class given is protein-complex assay.
A short description of experiment [7]: Cytotoxicity against human NCI/ADR cells. Conditions: NCI/ADR-RES.
Experiment [8] is described as follows: Cytotoxicity against human NCI-ADR-RES cells expressing ABCB1.
Experiment [9] concerns HeLa. In words: Cell cycle arrest in human HeLa cells assessed as accumulation at G2/M phase by measuring 4N DNA content at 6.4 uM by flow cytometry. It is filed as functional. Background: In flow cytometry, cells or beads pass a laser one at a time.
In experiment [10] the target is Tubulin. In words: Binding affinity to tubulin (unknown origin). It is filed as protein-complex assay, Homo sapiens.
The subject of experiment [11] is HeLa. Kind of experiment: Antimitotic activity against human HeLa cells. It is filed as functional, cell-based.

As for `COc1ccc2c(c1OC)C(=O)O[C@@H]2[C@H]1c2c(cc3c(c2OC)OCO3)CCN1Cc1cccc(Cl)c1`, the concentration for half-maximal inhibition (IC50) (commonly the concentration at which inhibition is half-maximal) in experiment [1] is 11.9 µM; in [2] it was 28.3 µM; in [3], 45.8 µM; in experiment [4], 61.3 µM.
As for `COc1ccc2c(c1OC)C(=O)O[C@@H]2[C@H]1c2c(c([N+](=O)[O-])c3c(c2OC)OCO3)CCN1C`, in experiment [5], the Kd (as a rule, the free concentration of one partner at which half of the binding sites on the other are occupied at equilibrium, for simple one-to-one binding) amounted to 86 µM.
For the compound `COc1ccc2c(c1OC)C(=O)O[C@@H]2[C@H]1c2c(cc3c(c2OC)OCO3)CCN1Cc1ccc([N+](=O)[O-])cc1`, the half-maximal inhibitory concentration (IC50) in experiment [1] amounted to 10 µM; in [2], 23.7 µM; in experiment [3], 38.2 µM; in [4], 49 µM.
On to `COc1ccc2c(c1OC)C(=O)O[C@@H]2[C@H]1c2c(c(N)c3c(c2OC)OCO3)CCN1C`, for which binding in experiment [5] was put at a Kd of 14 µM.
With `COc1ccc2c(c1OCCCS(=O)(=O)O)C(=O)O[C@@H]2[C@H]1c2c(c(Br)c3c(c2OC)OCO3)CCN1C`, the inhibition (as a rule, the change of the read-out against control, counted positive when it falls) in experiment [6] is 61%.
Regarding `COc1ccc2c(c1OC)C(=O)O[C@@H]2[C@@H]1NCCc2cc3c(c(OC)c21)OCO3`, the IC50 is 8.9 µM in [1], 20.9 µM in experiment [2], 33.6 µM in experiment [3] and 41.6 µM in experiment [4].
Take `COc1ccc2c(c1OC)C(=O)O[C@@H]2[C@H]1c2c(cc3c(c2OC)OCO3)CCN1Cc1ccc(Br)cc1`: the IC50 in experiment [1] was 9 µM; in [2], 21.2 µM; in experiment [3], 34.1 µM; in experiment [4], 42.4 µM.
On the same counts, the results for `COc1ccc(CN2CCc3cc4c(c(OC)c3[C@@H]2[C@H]2OC(=O)c3c2ccc(OC)c3OC)OCO4)cc1` are 7.7 µM, 17.9 µM, 28.7 µM and 33.5 µM.
For `COc1ccc2c(c1OCCCCS(=O)(=O)O)C(=O)O[C@@H]2[C@H]1c2c(c(Br)c3c(c2OC)OCO3)CCN1C`, the inhibition in experiment [6] is 68%.
Take `COc1cc2c(c(OC)c1OC)-c1ccc(OC)c(=O)cc1[C@@H](NC(C)=O)CC2` [COLCHICINE]: the IC50 in experiment [7] was determined as 0.00036 µM; in experiment [8], 0.096 µM.
On to `COc1ccc2c(c1OC)CO[C@@H]2[C@H]1c2c(c(Br)c3c(c2OC)OCO3)CCN1C`, for which, in experiment [9], the Activity came out at 72.7%. This compound came in with an equilibrium dissociation constant (Kd) in experiment [10] of 106 µM. Moreover, the midpoint of the response in experiment [11], the EC50, lay at 3.6 µM.
